This is an account of results in patent US20240327354A1, “GRAM-NEGATIVE BACTERIA EFFLUX PUMP INHIBITORS” (INSTITUT NATIONAL DE LA SANTÉ ET DE LA RECHERCHE MÉDICALE, priority 2021, published 2024).

Structures can show the parent of a compound that is named as a salt.

Assay [1] concerns A. baumannii LMG 1025 (ATCC 17978). Put plainly: Assay 2: growth inhibition of A. baumannii by sub-inhibitory chloramphenicol in combination with examples (resazurin reduction). The class given is cell-based, Acinetobacter baumannii. Particulars: read-out: EC90 on A. baumannii with 10 μg/mL of chloramphenicol, 10 μg/mL chloramphenicol, 5 h or 24 h, 37° C. The source says: (§1) Escherichia coli BW25113 (CGSC 7636) and its derivatives E. coli ΔtolC (JW5503-1, ΔtolC732::kan, CGSC 11430), E. coli ΔacrA (JW0452-3, ΔacrA748::kan, CGSC 11843) and E. coli ΔacrB (JW0451-2, ΔacrB747::kan, CGSC 8609) were obtained from E. coli Genetic Stock Center (CGSC, New Haven, Connecticut) and originated from the Keio Collection (Baba T et al, Mol Sys Biol, 2006). Klebsiella pneumoniae (LMG 2095/ATCC 13883) and K. pneumoniae (ATCC43816), Pseudomonas aeruginosa (PAO1), Acinetobacter baumannii (LMG 1025, ATCC 17978), were obtained from ATCC or BCCM/LMG Bacteria Collection. All bacteria were grown and tested in cation-adjusted Mueller-Hinton broth (CAMHB; BD Difco) at 37° C. For conservation, log phase bacteria were frozen (−80° C.) in CAMHB supplemented with 15% glycerol.
Measurement of Growth Inhibition of A. baumannii Strains by Sub Inhibitory Concentrations of Chloramphenicol in Combination with Examples 1-137
For the evaluation of the dose dependent activity of examples 1-137, their ability to boost the antibacterial activity of sub-inhibitory concentrations chloramphenicol was determined. Briefly, A. baumannii LMG 1025 (ATCC 17978) were diluted from frozen or growing stocks to an OD600 of 0.001 in CAMHB. The bacterial suspension was then used as such (no-antibiotic control to evaluate EPI activity), or spiked with chloramphenicol at a final concentration of 10 μg/mL. Bacteria were then added to microplates carrying serial dilutions of the compounds examples 1-137, and incubated for (5 h or 24 h, 37° C.). Bacterial viability was evaluated using the resazurin reduction assay, and measured by fluorescence (POLARstar Omega, BMG Labtech: Ex: 530 nm Em: 590 nm). […] were defined as the compound concentration that prevented 90% of resazurin turnover compared to the non-treated bacteria.

For the next assay, the system named is E. coli BW25113. Put plainly: Assay 1: growth inhibition of E. coli by sub-inhibitory pyridomycin in combination with examples (resazurin reduction). The class given is cell-based, Escherichia coli. The note with it: read-out: EC50 on E. coli with 8 μg/mL of pyridomycin, 8 μg/mL pyridomycin, 5 h, 37° C.
Excerpt: as §1
Briefly, E. coli BW25113 were diluted from frozen or growing stocks to an OD600 of 0.0004-0.001 in CAMHB. […] E. coli BW25113 viability was evaluated using the resazurin reduction assay, and measured by fluorescence (POLARstar Omega, BMG Labtech: Ex: 530 nm Em: 590 nm). EC50 were defined as the compound concentration that prevented 50% of resazurin turnover compared to the non-treated bacteria.
(Resazurin is reduced to fluorescent resorufin, in cell work by metabolically active cells.)

Consider `FC(F)(F)c1cnc(N2CCCNCC2)c(Cl)c1` [Example 6, 1-[3-chloro-5-(trifluoromethyl)-2-pyridyl]-1,4-diazepane], for which, in assay [1], the EC90 was 100 to 500 µM. The EC50 in the assay with E. coli BW25113 was 100 to 500 µM.

Take `Brc1cnc(N2CCCNCC2)c2ccccc12` [Example 8, 4-bromo-1-(1,4-diazepan-1-yl)isoquinoline]: the EC90 in assay [1] was in the range of 5 to 100 µM. Also, the EC50 in the assay with E. coli BW25113 was 5 to 100 µM.

As to `CCN1CCN(c2nc3ccccc3nc2Cl)CC1` [Example 9, 2-chloro-3-(4-ethylpiperazin-1-yl)quinoxaline;hydrochloride], the EC90 in assay [1] fell in the range of 100 to 500 µM. For the same compound, in the assay with E. coli BW25113, the EC50 lay within 5 to 100 µM.

For `Clc1cc2ccccc2nc1N1CCCNCC1` [Example 11, 3-chloro-2-(1,4-diazepan-1-yl)quinoline], in assay [1], the EC90 lay within 100 to 500 µM. Also, the EC50 with E. coli BW25113 was in the range of 5 to 100 µM.

As to `FC(F)(F)c1cnc(N2CCNCC2)c(Cl)c1` [Example 14, 1-[3-chloro-5-(trifluoromethyl)-2-pyridyl]piperazine; hydrochloride], the EC90 in assay [1] lay in the range of 100 to 500 µM. In the assay on E. coli BW25113, the EC50 lay within 5 to 100 µM.

Turning to `FC(F)(F)c1cnc(N2CC3CC2CN3)c(Cl)c1` [Example 15, (1S,4S)-2-[3-chloro-5-(trifluoromethyl)-2-pyridyl]-2,5-diazabicyclo[2.2.1]heptane;formic acid], the EC90 in assay [1] lay within 100 to 500 µM. Further, in the assay on E. coli BW25113, the EC50 lay within 100 to 500 µM.

For the compound `FC(F)(F)c1cnc(N2CCNCC2)c(Br)c1` [Example 17, 1-[3-bromo-5-(trifluoromethyl)-2-pyridyl]piperazine; hydrochloride], in assay [1], the EC90 lay in the range of 100 to 500 µM. Besides, the EC50 with E. coli BW25113 is 5 to 100 µM.

For `FC(F)(F)c1ccc(N2CCNCC2)c(Cl)c1` [Example 20, 1-[2-chloro-4-(trifluoromethyl)phenyl]piperazine; hydrochloride], the EC90 in assay [1] lay in the range of 100 to 500 µM. Moreover, the EC50 in the assay with E. coli BW25113 was in the range of 5 to 100 µM.

`FC(F)(F)c1cc(I)cnc1N1CCNCC1` [Example 21, 1-[5-iodo-3-(trifluoromethyl)-2-pyridyl]piperazine; hydrochloride]: in assay [1], the EC90 is 100 to 500 µM. The EC50 in the assay with E. coli BW25113 lay in the range of 5 to 100 µM.

As to `O=C(OCc1ccccc1)c1cnc(N2CCNCC2)c(Cl)c1` [Example 22, benzyl 5-chloro-6-piperazin-1-yl-pyridine-3-carboxylate;hydrochloride], in assay [1], the EC90 lay in the range of 100 to 500 µM. Also, the EC50 in the assay on E. coli BW25113 is 5 to 100 µM.

Regarding `O=C(OCCCc1ccccc1)c1cnc(N2CCNCC2)c(Cl)c1` [Example 23, 3-phenylpropyl 5-chloro-6-piperazin-1-yl-pyridine-3-carboxylate;hydrochloride], the EC90 in assay [1] was in the range of 100 to 500 µM. Also, the EC50 in the assay on E. coli BW25113 is 100 to 500 µM.

For the compound `Cc1ccc(COC(=O)c2cnc(N3CCNCC3)c(Cl)c2)cc1` [Example 24, p-tolylmethyl 5-chloro-6-piperazin-1-yl-pyridine-3-carboxylate;hydrochloride], in assay [1], the EC90 fell in the range of 100 to 500 µM. Besides, in the assay with E. coli BW25113, the EC50 fell in the range of 5 to 100 µM.

Regarding `O=C(OCc1ccc(Cl)cc1)c1cnc(N2CCNCC2)c(Cl)c1` [Example 25, (4-chlorophenyl)methyl 5-chloro-6-piperazin-1-yl-pyridine-3-carboxylate;hydrochloride], in assay [1], the EC90 lay in the range of 100 to 500 µM. The EC50 in the assay on E. coli BW25113 fell in the range of 5 to 100 µM.

For the compound `O=C(OCCc1ccc(Cl)cc1)c1cnc(N2CCNCC2)c(Cl)c1` [Example 26, 2-(4-chlorophenyl)ethyl 5-chloro-6-piperazin-1-yl-pyridine-3-carboxylate;hydrochloride], in assay [1], the EC90 lay within 100 to 500 µM. Also, the EC50 with E. coli BW25113 was 100 to 500 µM.

Take `O=C(OCCCc1ccc(Cl)cc1)c1cnc(N2CCNCC2)c(Cl)c1` [Example 27, 3-(4-chlorophenyl)propyl 5-chloro-6-piperazin-1-yl-pyridine-3-carboxylate;hydrochloride]: in assay [1], the EC90 lay in the range of 100 to 500 µM. In the assay on E. coli BW25113, the EC50 was in the range of 100 to 500 µM.

Regarding `O=C(OCCc1ccccc1)c1cnc(N2CCNCC2)c(Cl)c1` [Example 30, 2-phenylethyl 5-chloro-6-piperazin-1-yl-pyridine-3-carboxylate;hydrochloride], in assay [1], the EC90 lay within 100 to 500 µM. For the same compound, the EC50 with E. coli BW25113 was in the range of 5 to 100 µM.

Consider `COc1ccc(COC(=O)c2cnc(N3CCNCC3)c(Cl)c2)cc1` [Example 31, (4-methoxyphenyl)methyl 5-chloro-6-piperazin-1-yl-pyridine-3-carboxylate;hydrochloride], for which the EC90 in assay [1] is 100 to 500 µM. Also, the EC50 in the assay on E. coli BW25113 is 5 to 100 µM.

For the compound `O=C(NCc1ccc(Cl)cc1)c1cnc(N2CCNCC2)c(Cl)c1` [Example 33, 5-chloro-N-[(4-chlorophenyl)methyl]-6-piperazin-1-yl-pyridine-3-carboxamide;hydrochloride], in assay [1], the EC90 was in the range of 100 to 500 µM. Moreover, in the assay with E. coli BW25113, the EC50 lay within 5 to 100 µM.

`Clc1cc2ccccc2nc1N1CCNCC1` [Example 37, 3-chloro-2-piperazin-1-yl-quinoline; hydrochloride]: the EC90 in assay [1] lay within 5 to 100 µM. Moreover, the EC50 in the assay on E. coli BW25113 is less than 5 µM.

Take `Cc1cc2ccccc2nc1N1CCNCC1` [Example 38, 3-methyl-2-piperazin-1-yl-quinoline; hydrochloride]: in assay [1], the EC90 lay in the range of 100 to 500 µM. Besides, the EC50 in the assay on E. coli BW25113 is 5 to 100 µM.

With `N#Cc1cc2ccccc2nc1N1CCNCC1` [Example 39, 2-piperazin-1-ylquinoline-3-carbonitrile; hydrochloride], the EC90 in assay [1] lay within 100 to 500 µM. For the same compound, the EC50 in the assay with E. coli BW25113 lay in the range of 5 to 100 µM.

As to `Clc1ccc2nc(Cl)c(N3CCNCC3)cc2c1` [Example 41, 2,6-dichloro-3-piperazin-1-yl-quinoline;hydrochloride], the EC90 in assay [1] lay within 100 to 500 µM. For the same compound, the EC50 in the assay with E. coli BW25113 fell in the range of 5 to 100 µM.

As to `Cc1ccc2nc(Cl)c(N3CCNCC3)cc2c1` [Example 42, 2-chloro-6-methyl-3-piperazin-1-yl-quinoline;hydrochloride], the EC90 in assay [1] lay in the range of 100 to 500 µM. Moreover, in the assay with E. coli BW25113, the EC50 lay in the range of 5 to 100 µM.

As to `Brc1cc2ccccc2nc1N1CCNCC1` [Example 43, 3-bromo-2-piperazin-1-yl-quinoline;hydrochloride], the EC90 in assay [1] was in the range of 100 to 500 µM. The EC50 in the assay on E. coli BW25113 was less than 5 µM.

In the case of `Brc1cnc(N2CCNCC2)c2ccccc12` [Example 44, 4-bromo-1-piperazin-1-yl-isoquinoline;hydrochloride], the EC90 in assay [1] was 5 to 100 µM. The EC50 with E. coli BW25113 fell in the range of 100 to 500 µM.

Regarding `Clc1cc2ccccc2nc1N1C2CCC1CNC2` [Example 45, 3-chloro-2-(3,8-diazabicyclo[3.2.1]octan-8-yl)quinoline;hydrochloride], the EC90 in assay [1] was in the range of 100 to 500 µM. Besides, in the assay with E. coli BW25113, the EC50 lay within 100 to 500 µM.

For the compound `Clc1nc2ccccc2nc1N1CCNCC1` [Example 46, 2-chloro-3-piperazin-1-yl-quinoxaline;hydrochloride], in assay [1], the EC90 is 100 to 500 µM. Further, in the assay on E. coli BW25113, the EC50 is less than 5 µM.

Regarding `Clc1nc2ccccc2nc1N1CC2CCC(C1)N2` [Example 48, 2-chloro-3-(3,8-diazabicyclo[3.2.1]octan-3-yl)quinoxaline;hydrochloride], the EC90 in assay [1] fell in the range of 100 to 500 µM. The EC50 in the assay with E. coli BW25113 fell in the range of 5 to 100 µM.

As for `C[C@@H]1CN(c2nc3ccccc3nc2Cl)CCN1` [Example 49, hydrochloride], the EC90 in assay [1] was 100 to 500 µM. For the same compound, in the assay with E. coli BW25113, the EC50 was in the range of 5 to 100 µM.

In the case of `Clc1nc2ccccc2nc1N[C@H]1[C@@H]2CNC[C@@H]21` [Example 51, N-[(1R,5S)-3-azabicyclo[3.1.0]hexan-6-yl]-3-chloro-quinoxalin-2-amine;hydrochloride], the EC90 in assay [1] was 100 to 500 µM.

For `Ic1cc2ccccc2nc1N1CCNCC1` [Example 52, 3-iodo-2-piperazin-1-yl-quinoline;hydrochloride], the EC90 in assay [1] fell in the range of 100 to 500 µM. The EC50 with E. coli BW25113 was less than 5 µM.

For the compound `FC(F)(F)c1ccc2nc(N3CCNCC3)c(Br)cc2c1` [Example 53, 3-bromo-2-piperazin-1-yl-6-(trifluoromethyl)quinoline; hydrochloride], the EC90 in assay [1] lay within 100 to 500 µM. For the same compound, the EC50 in the assay with E. coli BW25113 lay within 5 to 100 µM.

Regarding `Clc1ccc2nc(N3CCNCC3)c(Br)cc2c1` [Example 54, 3-bromo-6-chloro-2-piperazin-1-yl-quinoline; hydrochloride], in assay [1], the EC90 was 100 to 500 µM. Moreover, in the assay with E. coli BW25113, the EC50 is less than 5 µM.

As for `Clc1cc2ccccc2nc1N[C@H]1[C@@H]2CNC[C@@H]21` [Example 57, N-[(1R,5S)-3-azabicyclo[3.1.0]hexan-6-yl]-3-chloro-quinolin-2-amine;hydrochloride], in assay [1], the EC90 was in the range of 100 to 500 µM.
